Test results from PMC5316807, “Protective role of fructokinase blockade in the pathogenesis of acute kidney injury in mice” (Nature Communications, 2017).

Target: T1, fructokinase (ketohexokinase, KHK) (Homo sapiens, UniProt P50053)
T1 sequence (P50053 1-298): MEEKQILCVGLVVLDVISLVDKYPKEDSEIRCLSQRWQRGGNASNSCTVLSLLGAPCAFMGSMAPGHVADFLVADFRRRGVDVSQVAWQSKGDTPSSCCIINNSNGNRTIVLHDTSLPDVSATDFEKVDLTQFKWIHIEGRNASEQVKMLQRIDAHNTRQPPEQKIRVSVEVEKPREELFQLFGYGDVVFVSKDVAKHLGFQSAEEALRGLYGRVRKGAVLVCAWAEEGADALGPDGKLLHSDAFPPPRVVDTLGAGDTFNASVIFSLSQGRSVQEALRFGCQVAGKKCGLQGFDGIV
Assay: fructose-dependent ATP depletion assay in HK-2 (human proximal tubule) cell lysates, KHK-deficient HK-2 cells as background control
Assay type: biochemical

O=c1cc(-c2ccc(O)c(O)c2)oc2cc(O)cc(O)c12 [luteolin]
IC50: 11.2 µM
